Here are results for 1 molecule from article PMC5218480 (PLoS ONE, 2017).

This assay concerns MV-4-11 cells. The experiment in a line: Gene expression microarray analysis (Affymetrix PrimeView) and GSEA. The assay is classed as cell-based, human. Set-up: RFU PODN (11730768_x_at) / Fold change /veh PODN (11730768_x_at) / RFU LINC00158 (11744669_a_at) / Fold change /veh LINC00158 (11744669_a_at) / RFU DUSP10 (11751237_a_at) / Fold change /veh DUSP10 (11751237_a_at) / RFU ID3 (11757404_x_at) / Fold change /veh ID3 (11757404_x_at) / RFU PLEKHG5 (11737974_s_at) / Fold change /veh PLEKHG5 (11737974_s_at) / RFU LRRC4B (11730491_at) / Fold change /veh LRRC4B (11730491_at) / RFU GIMAP4 (11747438_a_at) / Fold change /veh GIMAP4 (11747438_a_at) / RFU KRT8 (11758183_x_at) / Fold change /veh KRT8 (11758183_x_at) / RFU CNN1 (11734310_a_at) / Fold change /veh CNN1 (11734310_a_at) / RFU VPS37D (11726825_at) / Fold change /veh VPS37D (11726825_at) / RFU C10orf10 (11716522_x_at) / Fold change /veh C10orf10 (11716522_x_at) / RFU KIR2DL2 /// KIR2DL4 /// KIR2DL5A /// KIR2DL5B /// KIR2DS1 /// KIR2DS2 /// KIR2DS3 /// KIR2DS4 /// KIR3DL3 /// KIR3DL3 /// KIR3DS1 (11738374_at) / Fold change /veh KIR2DL2 /// KIR2DL4 /// KIR2DL5A /// KIR2DL5B /// KIR2DS1 /// KIR2DS2 /// KIR2DS3 /// KIR2DS4 /// KIR3DL3 /// KIR3DL3 /// KIR3DS1 (11738374_at) / RFU C1QL1 (11718748_at) / Fold change /veh C1QL1 (11718748_at) / RFU TMPRSS4 (11747572_a_at) / Fold change /veh TMPRSS4 (11747572_a_at) / RFU HAMP (11756126_x_at) / Fold change /veh HAMP (11756126_x_at) / RFU RNFT2 (11725882_a_at) / Fold change /veh RNFT2 (11725882_a_at) / RFU NR4A2 (11747474_a_at) / Fold change /veh NR4A2 (11747474_a_at) / RFU ABCC12 (11746883_a_at) / Fold change /veh ABCC12 (11746883_a_at) / RFU TMEM136 (11760407_x_at) / Fold change /veh TMEM136 (11760407_x_at) / RFU CLDN22 /// WWC2 (11732394_at) / Fold change /veh CLDN22 /// WWC2 (11732394_at) / RFU HLA-DPB1 (11760878_x_at) / Fold change /veh HLA-DPB1 (11760878_x_at) / RFU SPINT1 (11716480_a_at) / Fold change /veh SPINT1 (11716480_a_at) / RFU GAP43 (11754022_s_at) / Fold change /veh GAP43 (11754022_s_at) / RFU A4GNT (11735810_at) / Fold change /veh A4GNT (11735810_at) / RFU PRB3 (11715151_x_at) / Fold change /veh PRB3 (11715151_x_at) / RFU TUBB4B (11761932_at) / Fold change /veh TUBB4B (11761932_at) / RFU CAPN14 (11732068_a_at) / Fold change /veh CAPN14 (11732068_a_at) / RFU TMCC2 (11721928_a_at) / Fold change /veh TMCC2 (11721928_a_at) / RFU IRGQ (11745062_a_at) / Fold change /veh IRGQ (11745062_a_at) / RFU FAM174B (11720279_a_at) / Fold change /veh FAM174B (11720279_a_at) / RFU TMPRSS4 (11748680_a_at) / Fold change /veh TMPRSS4 (11748680_a_at) / RFU FAM212B (11763350_a_at) / Fold change /veh FAM212B (11763350_a_at) / RFU PLEKHG5 (11743358_a_at) / Fold change /veh PLEKHG5 (11743358_a_at) / RFU ZSCAN30 (11745921_a_at) / Fold change /veh ZSCAN30 (11745921_a_at) / RFU CMKLR1 (11741424_a_at) / Fold change /veh CMKLR1 (11741424_a_at) / RFU LOC101060620 /// MAPK8IP1 (11723275_at) / Fold change /veh LOC101060620 /// MAPK8IP1 (11723275_at) / RFU SPTSSB (11747773_x_at) / Fold change /veh SPTSSB (11747773_x_at) / RFU PRSS12 (11739890_at) / Fold change /veh PRSS12 (11739890_at) / RFU BIN1 (11741810_x_at) / Fold change /veh BIN1 (11741810_x_at) / RFU WNT11 (11732464_a_at) / Fold change /veh WNT11 (11732464_a_at) / RFU C10orf10 (11716521_a_at) / Fold change /veh C10orf10 (11716521_a_at) / RFU C5orf56 (11738089_at) / Fold change /veh C5orf56 (11738089_at) / RFU CYB561 (11721691_x_at) / Fold change /veh CYB561 (11721691_x_at) / RFU ANKRD19P (11752326_a_at) / Fold change /veh ANKRD19P (11752326_a_at) / RFU OR2T12 /// OR2T33 /// OR2T8 (11738714_s_at) / Fold change /veh OR2T12 /// OR2T33 /// OR2T8 (11738714_s_at) / RFU VCAN (11748164_a_at) / Fold change /veh VCAN (11748164_a_at) / RFU JSRP1 (11732532_at) / Fold change /veh JSRP1 (11732532_at) / RFU KRTAP10-11 (11738290_x_at) / Fold change /veh KRTAP10-11 (11738290_x_at) / RFU MYO3A (11730013_a_at) / Fold change /veh MYO3A (11730013_a_at) / RFU EBF3 (11725865_a_at) / Fold change /veh EBF3 (11725865_a_at) / RFU CAMK2N1 (11719241_x_at) / Fold change /veh CAMK2N1 (11719241_x_at) / RFU C5orf56 (11738088_a_at) / Fold change /veh C5orf56 (11738088_a_at) / RFU OLFML3 (11715873_a_at) / Fold change /veh OLFML3 (11715873_a_at) / RFU LOC100653217 /// NTM (11731650_a_at) / Fold change /veh LOC100653217 /// NTM (11731650_a_at) / RFU MAPK11 (11762145_a_at) / Fold change /veh MAPK11 (11762145_a_at) / RFU FIZ1 (11724087_x_at) / Fold change /veh FIZ1 (11724087_x_at) / RFU OASL (11726364_x_at) / Fold change /veh OASL (11726364_x_at) / RFU SOX15 (11748057_x_at) / Fold change /veh SOX15 (11748057_x_at) / RFU CD79A (11719716_a_at) / Fold change /veh CD79A (11719716_a_at) / RFU HIST1H1D (11736915_at) / Fold change /veh HIST1H1D (11736915_at) / RFU CASKIN2 (11723855_a_at) / Fold change /veh CASKIN2 (11723855_a_at) / RFU LOC730098 (11760151_x_at) / Fold change /veh LOC730098 (11760151_x_at) / RFU OR4N2 (11742367_at) / Fold change /veh OR4N2 (11742367_at) / RFU PRRT2 (11749266_a_at) / Fold change /veh PRRT2 (11749266_a_at) / RFU SNX32 (11753110_a_at) / Fold change /veh SNX32 (11753110_a_at) / RFU CDHR5 (11726645_a_at) / Fold change /veh CDHR5 (11726645_a_at) / RFU RCAN1 (11760418_a_at) / Fold change /veh RCAN1 (11760418_a_at) / RFU FAM167A (11723789_a_at) / Fold change /veh FAM167A (11723789_a_at) / RFU FAM26E (11764081_at) / Fold change /veh FAM26E (11764081_at) / RFU ISYNA1 (11749810_s_at) / Fold change /veh ISYNA1 (11749810_s_at) / RFU ACY1 (11761880_at) / Fold change /veh ACY1 (11761880_at) / RFU 11764098_at / Fold change /veh 11764098_at / RFU SAMD14 (11745864_x_at) / Fold change /veh SAMD14 (11745864_x_at) / RFU NPB (11741838_a_at) / Fold change /veh NPB (11741838_a_at) / RFU TMPRSS6 (11731388_a_at) / Fold change /veh TMPRSS6 (11731388_a_at) / RFU KRTAP10-2 (11738614_at) / Fold change /veh KRTAP10-2 (11738614_at) / RFU ARHGAP8 /// PRR5-ARHGAP8 (11727945_x_at) / Fold change /veh ARHGAP8 /// PRR5-ARHGAP8 (11727945_x_at) / RFU KRTAP5-7 /// NADSYN1 (11734609_at) / Fold change /veh KRTAP5-7 /// NADSYN1 (11734609_at) / RFU RASL12 (11751679_a_at) / Fold change /veh RASL12 (11751679_a_at) / RFU CDKN2B (11736163_a_at) / Fold change /veh CDKN2B (11736163_a_at) / RFU PRF1 (11729649_at) / Fold change /veh PRF1 (11729649_at) / RFU, ZNF638 /// ZNF638-IT1 / Fold change vs veh, ZNF638 /// ZNF638-IT1 / RFU, PANK3 / Fold change vs veh, PANK3 / RFU, SH3YL1 / Fold change vs veh, SH3YL1 / RFU, ZEB2 / Fold change vs veh, ZEB2 / RFU, NRIP1 / Fold change vs veh, NRIP1 / RFU, PTTG1IP / Fold change vs veh, PTTG1IP / RFU, CAPN2 / Fold change vs veh, CAPN2 / RFU, MED14 / Fold change vs veh, MED14 / RFU, SNORA58 / Fold change vs veh, SNORA58 / RFU, C1orf63 / Fold change vs veh, C1orf63 / RFU, LRRFIP1 / Fold change vs veh, LRRFIP1 / RFU, NDUFAF7 / Fold change vs veh, NDUFAF7 / RFU, SLC12A2 / Fold change vs veh, SLC12A2 / RFU, IBTK / Fold change vs veh, IBTK / RFU, ESF1 / Fold change vs veh, ESF1 / Fold change vs veh, TMEM50B / RFU, TAOK1 / Fold change vs veh, TAOK1 / RFU, ACBD3 / Fold change vs veh, ACBD3 / RFU, TMA16 / Fold change vs veh, TMA16 / RFU, RWDD3 / Fold change vs veh, RWDD3 / RFU, BCAT1 / Fold change vs veh, BCAT1 / RFU, EDEM3 / Fold change vs veh, EDEM3 / RFU, TMEM33 / Fold change vs veh, TMEM33 / RFU, WDR75 / Fold change vs veh, WDR75 / RFU, AHCTF1 / Fold change vs veh, AHCTF1 / RFU, TFRC / Fold change vs veh, TFRC / RFU, ZDHHC17 / Fold change vs veh, ZDHHC17 / RFU, NOM1 / Fold change vs veh, NOM1 / RFU, ARL8B / Fold change vs veh, ARL8B / RFU, ZBTB11 / Fold change vs veh, ZBTB11 / RFU, TAMM41 / Fold change vs veh, TAMM41 / RFU, KIAA1704 /// LOC100996395 / Fold change vs veh, KIAA1704 /// LOC100996395 / RFU, ING1 / Fold change vs veh, ING1 / RFU, TRMT61B / Fold change vs veh, TRMT61B / RFU, FUBP3 / Fold change vs veh, FUBP3 / RFU, TP53 / Fold change vs veh, TP53 / RFU, TNKS2 / Fold change vs veh, TNKS2 / RFU, ZFP14 / Fold change vs veh, ZFP14 / RFU, ACTR2 / Fold change vs veh, ACTR2 / RFU, PPP3R1 / Fold change vs veh, PPP3R1 / RFU, PIK3R1 / Fold change vs veh, PIK3R1 / RFU, HNRNPA1 / Fold change vs veh, HNRNPA1 / RFU, RNF170 / Fold change vs veh, RNF170 / RFU, ZNF28 / Fold change vs veh, ZNF28 / RFU, RNGTT / Fold change vs veh, RNGTT / RFU, OGT / Fold change vs veh, OGT / RFU, BRD1 / Fold change vs veh, BRD1 / RFU, MARS / Fold change vs veh, MARS / RFU, ZNF655 / Fold change vs veh, ZNF655 / RFU, FAHD1 / Fold change vs veh, FAHD1 / RFU, BDP1 / Fold change vs veh, BDP1 / RFU, LRRCC1 / Fold change vs veh, LRRCC1 / RFU, ARID1A / Fold change vs veh, ARID1A / RFU, ZNF146 / Fold change vs veh, ZNF146 / RFU, ZNF330 / Fold change vs veh, ZNF330 / RFU, GPN3 / Fold change vs veh, GPN3 / RFU, C9orf123 / Fold change vs veh, C9orf123 / RFU, N4BP2L2 / Fold change vs veh, N4BP2L2 / RFU, ARFIP1 / Fold change vs veh, ARFIP1 / RFU, FAM179B / Fold change vs veh, FAM179B / RFU, BCL10 / Fold change vs veh, BCL10 / RFU, UHRF1BP1L / Fold change vs veh, UHRF1BP1L / RFU, BET1 / Fold change vs veh, BET1 / RFU, CNOT2 / Fold change vs veh, CNOT2 / RFU, ZNF268 / Fold change vs veh, ZNF268 / Fold change vs veh, ZNF507 / RFU, DGCR2 / Fold change vs veh, DGCR2 / RFU, WDSUB1 / Fold change vs veh, WDSUB1 / Fold change vs veh, HSP90B1 /// MIR3652 / RFU, ADSS / Fold change vs veh, ADSS / RFU, GK / Fold change vs veh, GK / RFU, ZNF148 / Fold change vs veh, ZNF148 / RFU, TAF9 / Fold change vs veh, TAF9 / RFU, SLC1A5 / Fold change vs veh, SLC1A5 / RFU, SLMO2 / Fold change vs veh, SLMO2 / RFU, ABCC4 / Fold change vs veh, ABCC4 / RFU, LOC101060439 /// RAP1B / Fold change vs veh, LOC101060439 /// RAP1B / RFU, RFX7 / Fold change vs veh, RFX7 / RFU, GTPBP10 / Fold change vs veh, GTPBP10 / RFU, CNEP1R1 / Fold change vs veh, CNEP1R1 / RFU, BIVM-ERCC5 /// ERCC5 / Fold change vs veh, BIVM-ERCC5 /// ERCC5 / RFU, ILF3 / Fold change vs veh, ILF3 / RFU 11762660_at / Fold change /veh 11762660_at / RFU VCAN (11757783_s_at) / Fold change /veh VCAN (11757783_s_at) / RFU DDX43 (11728927_at) / Fold change /veh DDX43 (11728927_at) / RFU KRT8 (11758188_x_at) / Fold change /veh KRT8 (11758188_x_at) / RFU NKD1 (11759106_at) / Fold change /veh NKD1 (11759106_at) / RFU SRD5A1 (11742802_a_at) / Fold change /veh SRD5A1 (11742802_a_at) / RFU TPSAB1 /// TPSB2 (11721975_s_at) / Fold change /veh TPSAB1 /// TPSB2 (11721975_s_at) / RFU GSTM3 (11746129_a_at) / Fold change /veh GSTM3 (11746129_a_at) / RFU IL23R (11737362_x_at) / Fold change /veh IL23R (11737362_x_at) / RFU TMEM51 (11727254_a_at) / Fold change /veh TMEM51 (11727254_a_at) / RFU PIWIL2 (11732686_x_at) / Fold change /veh PIWIL2 (11732686_x_at) / RFU ORM1 (11744905_x_at) / Fold change /veh ORM1 (11744905_x_at) / RFU CCDC152 (11743942_at) / Fold change /veh CCDC152 (11743942_at) / RFU ECM1 (11717891_a_at) / Fold change /veh ECM1 (11717891_a_at) / RFU IL23R (11748794_a_at) / Fold change /veh IL23R (11748794_a_at) / RFU TNFAIP8L3 (11732012_x_at) / Fold change /veh TNFAIP8L3 (11732012_x_at) / RFU MBOAT4 (11741988_at) / Fold change /veh MBOAT4 (11741988_at) / RFU 11764193_at / Fold change /veh 11764193_at / RFU TMEM53 (11763286_at) / Fold change /veh TMEM53 (11763286_at) / RFU MAGEB2 (11727129_at) / Fold change /veh MAGEB2 (11727129_at) / RFU TMEM200A (11744735_a_at) / Fold change /veh TMEM200A (11744735_a_at) / RFU CCDC152 (11751479_a_at) / Fold change /veh CCDC152 (11751479_a_at) / RFU FAM211A (11726209_a_at) / Fold change /veh FAM211A (11726209_a_at) / RFU RGS16 (11746705_a_at) / Fold change /veh RGS16 (11746705_a_at) / RFU VCAN (11755009_s_at) / Fold change /veh VCAN (11755009_s_at) / RFU RHOB (11743442_s_at) / Fold change /veh RHOB (11743442_s_at) / RFU RGS16 (11720943_a_at) / Fold change /veh RGS16 (11720943_a_at) / RFU RGS16 (11720944_at) / Fold change /veh RGS16 (11720944_at) / RFU, VPS4B / Fold change vs veh, VPS4B / RFU, CREB1 / Fold change vs veh, CREB1 / RFU, DNAJC13 / Fold change vs veh, DNAJC13 / RFU, GNAQ / Fold change vs veh, GNAQ / RFU, CDK5R1 / Fold change vs veh, CDK5R1 / RFU, ZRANB3 / Fold change vs veh, ZRANB3 / RFU, CUL4A / Fold change vs veh, CUL4A / RFU, CCNY / Fold change vs veh, CCNY / RFU, UFL1 / Fold change vs veh, UFL1 / RFU, COG3 / Fold change vs veh, COG3 / RFU, DIAPH2 / Fold change vs veh, DIAPH2 / RFU, SKA2 / Fold change vs veh, SKA2 / RFU, AFF3 / Fold change vs veh, AFF3 / RFU, LMF1 / Fold change vs veh, LMF1 / RFU, IPO11 / Fold change vs veh, IPO11 / RFU, DFFB / Fold change vs veh, DFFB / RFU, FOXP1 / Fold change vs veh, FOXP1 / RFU, CARD8 / Fold change vs veh, CARD8 / RFU, STRN3 / Fold change vs veh, STRN3 / RFU, ADK / Fold change vs veh, ADK / RFU, RASSF2 / Fold change vs veh, RASSF2 / RFU, WIPF1 / Fold change vs veh, WIPF1 / RFU, LARP1B / Fold change vs veh, LARP1B / RFU, RASA1 / Fold change vs veh, RASA1 / RFU, RB1 / Fold change vs veh, RB1 / RFU, PPFIA1 / Fold change vs veh, PPFIA1 / RFU, MAT2A / Fold change vs veh, MAT2A / RFU, CCT5 / Fold change vs veh, CCT5 / RFU, WDR92 / Fold change vs veh, WDR92 / RFU, CUX1 / Fold change vs veh, CUX1 / RFU, TTC7A / Fold change vs veh, TTC7A / RFU, TMEM135 / Fold change vs veh, TMEM135 / RFU, DEPTOR / Fold change vs veh, DEPTOR / RFU, CPM / Fold change vs veh, CPM / RFU, DNAJB6 / Fold change vs veh, DNAJB6 / RFU, CACNA2D3 / Fold change vs veh, CACNA2D3 / RFU, DTX4 / Fold change vs veh, DTX4 / RFU, TFCP2 / Fold change vs veh, TFCP2 / RFU, GMCL1 /// GMCL1P1 / Fold change vs veh, GMCL1 /// GMCL1P1 / RFU, AEBP2 / Fold change vs veh, AEBP2 / RFU, SNHG1 /// SNORD22 /// SNORD25 /// SNORD26 /// SNORD27 /// SNORD28 /// SNORD29 /// SNORD31 / Fold change vs veh, SNHG1 /// SNORD22 /// SNORD25 /// SNORD26 /// SNORD27 /// SNORD28 /// SNORD29 /// SNORD31 / Fold change (Aza/veh), C12orf56 (ProbeSet 11735607_a_at) / Fold change (ACY-1035/veh), C12orf56 (ProbeSet 11735607_a_at) / Fold change (Aza/veh), FGFR1OP (ProbeSet 11751329_s_at) / Fold change (ACY-1035/veh), FGFR1OP (ProbeSet 11751329_s_at) / Fold change (Aza/veh), VPS36 (ProbeSet 11739960_a_at) / Fold change (ACY-1035/veh), VPS36 (ProbeSet 11739960_a_at) / RFU SYPL1 (11715823_x_at) / Fold change /veh SYPL1 (11715823_x_at) / RFU IGFBP7 (11715501_s_at) / Fold change /veh IGFBP7 (11715501_s_at) / RFU REEP3 (11722064_at) / Fold change /veh REEP3 (11722064_at) / RFU IGLL1 (11728026_x_at) / Fold change /veh IGLL1 (11728026_x_at): dose or concentration left out as unconfirmed. The following applies: MV-4-11 cells, 48 hours.

For `Nc1ccc(-c2cccs2)cc1NC(=O)c1ccc2c(c1)cc(C1CC1)n2CCN1CCOCC1` [ACY-1035], the “RFU FIZ1 (11724087_x_at)” value is listed as 31.13 RFU.
